Measurements: ChEMBL document CHEMBL1156429 (J Biol Chem, 2007)
Structures can show the parent of a compound that is named as a salt. Active and inactive are the calls of the source. No cut-off for these calls is given here.

Experiments:
Polycythemia vera [1] = test: Growth inhibition of JAK2 V617F mutant deficient human polycythemia vera hematopoietic progenitor cells at 5 uM by erythroid burst-forming unit assay; type: functional, cell-based
[2] = Growth inhibition of JAK2 V617F mutant expressing hematopoietic progenitor cells isolated from polycythemia vera patient by colony forming assay; type: functional, cell-based; settings: Homo sapiens
[3] = Growth inhibition of JAK2 V617F mutant expressing human erythroleukemia cells after 24 hrs; type: functional, cell-based; settings: Leukemia cell
[4] = Growth inhibition of mouse erythroleukemia cells after 24 hrs; type: functional, cell-based; settings: Leukemia cell
Jurkat = test: Growth inhibition of human Jurkat cells after 24 hrs; type: functional, cell-based
Polycythemia vera [5] = test: Growth inhibition of JAK2 V617F mutant expressing human polycythemia vera hematopoietic progenitor cells at 5 uM by erythroid burst-forming unit assay; type: functional, cell-based
Homo sapiens = species: Homo sapiens; test: Growth inhibition of normal human hematopoietic progenitor cells by colony forming assay; type: functional
[6] = Inhibition of formation of erythroid burst-forming units in human polycythemia vera cells at 1 uM; settings: read-out: INH

Row | Structure (SMILES) | Activity (Polycythemia vera [1]) | IC50 [2] [nM] | IC50 [3] [nM] | IC50 [4] [nM] | IC50 (Jurkat) [nM] | Activity (Polycythemia vera [5]) | Activity (Homo sapiens) | inhibition at 1 µM [6] [%]
1 | C#Cc1cccc(Nc2ncnc3cc(OCCOC)c(OCCOC)cc23)c1 [ERLOTINIB] | inactive | 5000 | 2000 | 2000 | 2000 | Active | inactive | –
2 | Cc1ccc(NC(=O)c2ccc(CN3CCN(C)CC3)cc2)cc1Nc1nccc(-c2cccnc2)n1 [IMATINIB MESYLATE] | – | – | – | – | – | – | – | 73
